Among the data in the OligoGym collection are target mRNA inhibition values, retold here.

Several values for one entry are separate records, joined by “and”; a condition that tells them apart may be missing. Equal values may be shown once. After the bases stand the sugars from the 5' end (letter, count) and the backbone: PS all phosphorothioate, else s phosphorothioate and o phosphodiester by linkage. Methylation of C is not given here. e = 2'-O-(2-methoxyethyl) (MOE); k = constrained ethyl (cEt); d = 2'-deoxy (DNA)

The target of the series is KRAS. The following applies: ASO.

The sequence “TGCTGTGAAACTCTCT (sugars kkddddddddddkeke, PS)” registered a target mRNA inhibition (A431, 2 µM) of 30%.
On to ATAATAATCCCCATTT (sugars k3 d10 k3, PS), for which the target mRNA inhibition (A431, 2 µM) came out at 4%.
Regarding “TTGATTTGTCAGCAGG (sugars kkdddddddddkekek, PS)”, the target mRNA inhibition (A431, 2 µM) is 23% and 22%.
For TCTGAATTAGTCTCCA (sugars k3 d10 k3, PS), the target mRNA inhibition is 0% (A431, 0.185 µM); 26% (A431, 0.556 µM); 48% (A431, 1.667 µM); 62% and 50% (A431, 2 µM); 68% (A431, 5 µM).
As for “GGAGTCTTTATAGTAA (sugars kkddddddddkekekk, PS)”, the target mRNA inhibition (A431, 2 µM) is 25%.
Still for that read-out and setting: to “ACCAGTGTTAAGAGAA (sugars kkddddddddkekekk, PS)” belongs 52%; to AAAAATTAATGTCTTG (sugars k3 d10 k3, PS), 20%; to “TGCTGTGAAACTCTCT (sugars kkdddddddddkekek, PS)”, 0%.
The same measure, in the same setting: to CTTTTTGACAAATGGA (sugars k3 d10 k3, PS) belongs 22%; to “TGTTTATGCAATGTTA (sugars kkdddddddddkdkdk, PS)”, 46%.
In the case of “GTGTTTATGCAATGTT (sugars kkkddddddddkdkdk, PS)”, the target mRNA inhibition is, setting by setting: (A431, 0.125 µM) 70% and 58%; (A431, 0.185 µM) 27%; (A431, 0.556 µM) 47%; (A431, 1.667 µM) 73%; (A431, 5 µM) 81%.
As for TCTTGTTGAGCTATCC (sugars k3 d10 k3, PS), the target mRNA inhibition reads like this: (A431, 0.185 µM) 28% and 3%; (A431, 0.556 µM) 38% and 29%; (A431, 1.667 µM) 61% and 40%; (A431, 2 µM) 56%; (A431, 5 µM) 82% and 64%.
As for TCATTGTTTAAAAAAA (sugars k3 d10 k3, PS), the target mRNA inhibition (A431, 2 µM) worked out at 0%.
For “TCCATTTATGTGACTA (sugars kddddddddddkekek, PS)”, under “A431, 2 µM”, the target mRNA inhibition came to 38%.
The same measure, in the same setting: under “AGATTGTGCTGAGCTT (sugars k3 d9 k3 e1, PS)” stands 42%; under ACGAGAATGGATATTC (sugars k3 d10 k3, PS), 29%.
As for TTAATTACTTATGCAG (sugars k3 d10 k3, PS), for the setting “A431, 2 µM”, the target mRNA inhibition was 32%.
For the sequence AGCTTGATCGAAGAGT (sugars k3 d10 k3, PS), the target mRNA inhibition (A431, 5 µM) was determined as 50%.
Sequence ATCCATTTATGTGACT (sugars k3 d10 k3, PS) yielded a target mRNA inhibition (A431, 2 µM) of 38%.
For “GTTTATGCAATGTTAA (sugars kkddddddddkekekk, PS)”, the target mRNA inhibition reads like this: (A431, 0.185 µM) 27%; (A431, 0.556 µM) 46%; (A431, 1.667 µM) 45%; (A431, 2 µM) 57%; (A431, 5 µM) 79%.
With CAGACTTGAAAAGTGT (sugars k3 d10 k3, PS), the target mRNA inhibition (A431, 2 µM) was found to be 24%.
Still for that read-out and setting: under “CCAGTGATACTTTCAC (sugars kkddddddddkekekk, PS)” stands 17%; under “ATGGTGTAACATAGGT (sugars kdddddddddkekeke, PS)”, 39%.
In the case of “ATGGTGTAACATAGGT (sugars kkdddddddddkekek, PS)”, the target mRNA inhibition by setting is: (A431, 2 µM) 53%; (NCI-H460, 0.037 µM) 52.7%.
In the case of ATTAGTGATTAGGTCA (sugars k3 d10 k3, PS), the target mRNA inhibition by setting is: (A431, 0.185 µM) 2% and 25%; (A431, 0.556 µM) 37%; (A431, 1.667 µM) 47%; (A431, 2 µM) 55%; (A431, 5 µM) 71%.
Consider “ATGCTGTGAAACTCTC (sugars kkddddddddkekekk, PS)”, for which, where the note is “A431, 2 µM”, the target mRNA inhibition turned out to be 25%.
Same read-out and setting: to AGATATCCACAGCAGC (sugars k3 d10 k3, PS) belongs 58%; to “CAGTGTTAAGAGAACT (sugars kdddddddddkekeke, PS)”, 40%.
